Experimental data published in US11439641B2, “Pyrimidine JAK inhibitors for the treatment of skin diseases” (THERAVANCE BIOPHARMA R&D IP, LLC, priority 2019, dated 2022).

Assays:
JAK1 = JAK1 (Homo sapiens (Human), UniProt P23458); assay: Biochemical JAK and Tyk2 Kinase Assays (LanthaScreen), JAK1; details: 25 μM ATP (Km); pIC50 converted to pKi by Cheng-Prusoff
Experimental: (§1) Assay 1: Biochemical JAK and Tyk2 Kinase Assays
(§2) A panel of four LanthaScreen JAK biochemical assays (JAK1, 2, 3 and Tyk2) were carried in a common kinase reaction buffer (50 mM HEPES, pH 7.5, 0.01% Brij-35, 10 mM MgCl2, and 1 mM EGTA). Recombinant GST-tagged JAK enzymes and a GFP-tagged STAT1 peptide substrate were obtained from Life Technologies.
(§3) Serially or discretely diluted compounds were pre-incubated with each of the four JAK enzymes and the substrate in white 384-well microplates (Corning) at ambient temperature for 1 h. ATP was subsequently added to initiate the kinase reactions in 10 μL total volume, with 1% DMSO. The final enzyme concentrations for JAK1, 2, 3 and Tyk2 are 4.2 nM, 0.1 nM, 1 nM, and 0.25 nM respectively; the corresponding Km ATP concentrations used are 25 μM, 3 μM, 1.6 μM, and 10 μM; while the substrate concentration is 200 nM for all four assays. Kinase reactions were allowed to proceed for 1 hour at ambient temperature before a 10 μL preparation of EDTA (10 mM final concentration) and Tb-anti-pSTAT1 (pTyr701) antibody (Life Technologies, 2 nM final concentration) in TR-FRET dilution buffer (Life Technologies) was added. The plates were allowed to incubate at ambient temperature for 1 h before being read on the EnVision reader (Perkin Elmer). Emission ratio signals (520 nm/495 nm) were recorded and utilized to calculate the percent inhibition values based on DMSO and background controls.
(§4) For dose-response analysis, percent inhibition data were plotted vs. compound concentrations, and IC50 values were determined from a 4-parameter robust fit model with the Prism software (GraphPad Software). Results were expressed as pIC50 (negative logarithm of IC50) and subsequently converted to pKi (negative logarithm of dissociation constant, Ki) using the Cheng-Prusoff equation.

JAK3 = JAK3 (Homo sapiens (Human), UniProt P52333); assay: Biochemical JAK and Tyk2 Kinase Assays (LanthaScreen), JAK3; details: 1.6 μM ATP (Km); pIC50 converted to pKi by Cheng-Prusoff
Chain of JAK3 (P52333 whole entry): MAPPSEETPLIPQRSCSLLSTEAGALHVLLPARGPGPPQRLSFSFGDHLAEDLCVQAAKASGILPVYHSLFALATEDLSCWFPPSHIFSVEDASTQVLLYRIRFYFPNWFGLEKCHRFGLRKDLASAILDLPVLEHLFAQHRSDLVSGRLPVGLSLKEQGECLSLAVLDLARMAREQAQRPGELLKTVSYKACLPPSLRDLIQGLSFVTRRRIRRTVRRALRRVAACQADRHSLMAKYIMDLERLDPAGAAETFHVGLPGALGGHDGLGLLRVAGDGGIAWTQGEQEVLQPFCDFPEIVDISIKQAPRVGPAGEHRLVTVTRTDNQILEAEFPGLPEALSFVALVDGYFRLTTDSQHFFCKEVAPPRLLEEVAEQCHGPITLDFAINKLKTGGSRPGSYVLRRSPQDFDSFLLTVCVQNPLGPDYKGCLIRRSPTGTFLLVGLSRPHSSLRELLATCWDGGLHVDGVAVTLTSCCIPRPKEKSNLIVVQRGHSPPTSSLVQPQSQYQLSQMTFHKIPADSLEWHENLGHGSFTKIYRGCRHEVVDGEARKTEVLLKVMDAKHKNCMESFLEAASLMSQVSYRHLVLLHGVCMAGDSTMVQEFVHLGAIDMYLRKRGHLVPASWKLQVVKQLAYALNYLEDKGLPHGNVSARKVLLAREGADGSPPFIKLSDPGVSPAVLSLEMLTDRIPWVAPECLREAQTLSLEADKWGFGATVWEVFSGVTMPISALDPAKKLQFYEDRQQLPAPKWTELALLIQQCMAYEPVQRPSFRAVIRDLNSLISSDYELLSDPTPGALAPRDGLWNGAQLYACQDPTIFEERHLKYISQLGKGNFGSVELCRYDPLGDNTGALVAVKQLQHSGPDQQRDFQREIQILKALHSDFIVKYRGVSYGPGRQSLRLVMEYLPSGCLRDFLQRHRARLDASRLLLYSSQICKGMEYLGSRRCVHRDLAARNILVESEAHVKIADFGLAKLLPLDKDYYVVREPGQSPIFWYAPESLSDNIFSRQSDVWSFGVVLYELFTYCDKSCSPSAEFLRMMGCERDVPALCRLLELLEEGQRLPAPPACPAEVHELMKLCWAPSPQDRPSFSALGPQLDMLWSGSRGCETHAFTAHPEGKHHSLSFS
Experimental: as §1, §2, §3, §4

[1] = system: IL-2 stimulated pSTAT5 in Tall-1 T cells; assay: Inhibition of IL-2 Stimulated pSTAT5 in Tall-1 T Cells; type: cell-based; details: Tall-1 human T cell line, IL-2 300 ng/mL, AlphaLisa
Experimental: Assay 2: Inhibition of IL-2 Stimulated pSTAT5 in Tall-1 T Cells
The potency of test compounds for inhibition of interleukin-2 (IL-2) stimulated STATS phosphorylation was measured in the Tall-1 human T cell line (DSMZ) using AlphaLisa. Because IL-2 signals through JAK1/3, this assay provides a measure of JAK1/3 cellular potency.
Phosphorylated STATS was measured via the AlphaLISA SureFire Ultra pSTAT5 (Tyr694/699) kit (PerkinElmer). Human T cells from the Tall-1 cell line were cultured in a 37° C., 5% CO2 humidified incubator in RPMI (Life Technologies) supplemented with 15% Heat Inactivated Fetal Bovine Serum (FBS, Life Technologies), 2 mM Glutamax (Life Technologies), 25 mM HEPES (Life Technologies) and 1× Pen/Strep (Life Technologies). Compounds were serially diluted in DMSO and dispensed acoustically to empty wells. Assay media (phenol red-free DMEM (Life Technologies) supplemented with 10% FBS (ATCC)) was dispensed (4 μL/well) and plates shaken at 900 rpm for 10 mins. Cells were seeded at 45,000 cells/well in assay media (4 μL/well), and incubated at 37° C., 5% CO2 for 1 hour, followed by the addition of IL-2 (R&D Systems; final concentration 300 ng/mL) in pre-warmed assay media (4 μL) for 30 minutes. After cytokine stimulation, cells were lysed with 6 ul of 3× AlphaLisa Lysis Buffer (PerkinElmer) containing 1× PhosStop and Complete tablets (Roche). The lysate was shaken at 900 rpm for 10 minutes at room temperature (RT). Phosphorylated STATS was measured via the pSTAT5 AlphaLisa kit (PerkinElmer). Freshly prepared acceptor bead mixture was dispensed onto lysate (51) under green filtered <100 lux light. Plates were shaken at 900 rpm for 2 mins, briefly spun down, and incubated for 2 hrs at RT in the dark. Donor beads were dispensed (5 μL) under green filtered <100 lux light. Plates were shaken at 900 rpm for 2 minutes, briefly spun down, and incubated overnight at RT in the dark. Luminescence was measured with excitation at 689 nm and emission at 570 nm using an EnVision plate r reader (PerkinElmer) under green filtered <100 lux light.
To determine the inhibitory potency of test compounds in response to IL-2, the average emission intensity of beads bound to pSTAT5 was measured in a human T cell line. IC50 values were determined from analysis of the inhibition curves of signal intensity versus compound concentration. Data are expressed as pIC50 (negative decadic logarithm IC50) values (mean±standard deviation).

Aqueous Solubility Assay = details: PBS buffer pH 7.4; maximum upper limit 1,000 μM
[2] = Solubility Assay in Organic Excipients; details: maximum upper limit 20,000 μM; for Solubility in MCT (mg/mL): medium chain triglycerides (MCT)

Chain of JAK1 (P23458 whole entry): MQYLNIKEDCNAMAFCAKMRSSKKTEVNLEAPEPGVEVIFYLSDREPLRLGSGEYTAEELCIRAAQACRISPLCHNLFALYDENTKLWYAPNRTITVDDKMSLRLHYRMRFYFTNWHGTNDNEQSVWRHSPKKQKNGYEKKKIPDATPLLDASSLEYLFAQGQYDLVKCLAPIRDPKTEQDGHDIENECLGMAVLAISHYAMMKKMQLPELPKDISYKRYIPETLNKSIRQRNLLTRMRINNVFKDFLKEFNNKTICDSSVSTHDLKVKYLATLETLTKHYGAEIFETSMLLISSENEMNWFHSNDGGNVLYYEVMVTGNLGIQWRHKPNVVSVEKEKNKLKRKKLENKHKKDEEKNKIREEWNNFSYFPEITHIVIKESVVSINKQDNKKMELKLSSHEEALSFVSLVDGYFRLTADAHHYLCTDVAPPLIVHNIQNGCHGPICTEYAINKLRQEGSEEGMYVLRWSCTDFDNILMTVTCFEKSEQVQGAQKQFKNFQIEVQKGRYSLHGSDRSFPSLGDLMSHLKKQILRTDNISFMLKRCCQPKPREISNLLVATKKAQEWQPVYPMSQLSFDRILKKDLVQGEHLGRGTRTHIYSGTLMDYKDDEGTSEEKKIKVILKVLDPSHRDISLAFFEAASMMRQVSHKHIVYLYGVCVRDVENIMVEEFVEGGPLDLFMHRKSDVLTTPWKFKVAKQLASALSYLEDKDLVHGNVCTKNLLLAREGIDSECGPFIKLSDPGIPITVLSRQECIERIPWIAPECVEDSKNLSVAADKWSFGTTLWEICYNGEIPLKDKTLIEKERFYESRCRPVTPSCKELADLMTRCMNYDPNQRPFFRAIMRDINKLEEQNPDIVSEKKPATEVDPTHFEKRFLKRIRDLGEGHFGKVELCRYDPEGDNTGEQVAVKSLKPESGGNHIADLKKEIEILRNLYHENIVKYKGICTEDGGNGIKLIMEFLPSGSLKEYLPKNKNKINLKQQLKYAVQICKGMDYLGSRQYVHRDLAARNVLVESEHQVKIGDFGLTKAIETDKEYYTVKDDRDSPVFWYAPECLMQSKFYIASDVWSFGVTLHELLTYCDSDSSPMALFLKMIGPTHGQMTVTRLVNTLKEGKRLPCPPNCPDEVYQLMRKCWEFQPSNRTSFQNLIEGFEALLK

Q: Which results are given for `COC(=O)N1[C@@H]2CCC[C@H]1C[C@H](N(C)c1nc(Nc3cc(C)[nH]n3)cc(C3CCOC3)n1)C2` (stereo partly drawn) [Compound 6, Methyl (1R,3s,5S)-3-(methyl(4-((5-methyl-1H-pyrazol-3-yl)amino)-6-(tetrahydrofuran-3-yl)pyrimidin-2-yl)amino)-9-azabicyclo[3.3.1]nonane-9-carboxylate]?
A: JAK 1 (pKi) (JAK1): A (A represents a pKi value ≥10 (Ki≤0.1 nM)); JAK 3 (pKi) (JAK3): C (C represents a pKi value between 8 and 9 (Ki between 10 nM and 1 nM)); Tall-1 IL2 pSTAT5 (pIC50) [1]: A (A represents a pIC50 value ≥8.0); Solubility at PH 7.4 (μmol) (Aqueous Solubility Assay): D (D represents a value between 10 and 50); Solubility in PEG400 (mg/mL) [2]: C (C represents a value below 5); Solubility in Diisopropyl adipate (mg/mL) [2]: C (C represents a value below 5); Solubility in MCT (mg/mL) [2]: C (C represents a value below 5); Solubility in Propylene glycol (mg/mL) [2]: C (C represents a value below 5)

Q: Which results are given for `CCS(=O)(=O)N1[C@@H]2CCC[C@H]1C[C@H](N(C)c1nc(Nc3cc(C)[nH]n3)cc(C3CCOC(C)(C)C3)n1)C2` (stereo partly drawn) [Compound 2, 6-(2,2-dimethyltetrahydro-2H-pyran-4-yl)-N2-((1R,3s,5S)-9-(ethylsulfonyl)-9-azabicyclo[3.3.1]nonan-3-yl)-N2-methyl-N4-(5-methyl-1H-pyrazol-3-yl)pyrimidine-2,4-diamine]?
A: JAK 1 (pKi) (JAK1): B (B represents a pKi value between 9 and 10 (Ki between 1 nM and 0.1 nM)); JAK 3 (pKi) (JAK3): B (B represents a pKi value between 9 and 10 (Ki between 1 nM and 0.1 nM)); Tall-1 IL2 pSTAT5 (pIC50) [1]: A (A represents a pIC50 value ≥8.0); Solubility at PH 7.4 (μmol) (Aqueous Solubility Assay): C (C represents a value between 50 and 250); Solubility in PEG400 (mg/mL) [2]: C (C represents a value below 5); Solubility in Diisopropyl adipate (mg/mL) [2]: C (C represents a value below 5); Solubility in MCT (mg/mL) [2]: C (C represents a value below 5); Solubility in Propylene glycol (mg/mL) [2]: C (C represents a value below 5)

Q: Which results are given for `COC(=O)N1[C@@H]2CCC[C@H]1C[C@H](N(C)c1nc(Nc3cc(C)[nH]n3)cc(C3CCOCC3)n1)C2` [Compound 3, methyl (1R,3s,5S)-3-(methyl(4-((5-methyl-1H-pyrazol-3-yl)amino)-6-(tetrahydro-2H-pyran-4-yl)pyrimidin-2-yl)amino)-9-azabicyclo[3.3.1]nonane-9-carboxylate]?
A: JAK 1 (pKi) (JAK1): B (B represents a pKi value between 9 and 10 (Ki between 1 nM and 0.1 nM)); JAK 3 (pKi) (JAK3): B (B represents a pKi value between 9 and 10 (Ki between 1 nM and 0.1 nM)); Tall-1 IL2 pSTAT5 (pIC50) [1]: A (A represents a pIC50 value ≥8.0); Solubility at PH 7.4 (μmol) (Aqueous Solubility Assay): E (E represents a value below 10); Solubility in PEG400 (mg/mL) [2]: C (C represents a value below 5); Solubility in Diisopropyl adipate (mg/mL) [2]: C (C represents a value below 5); Solubility in MCT (mg/mL) [2]: C (C represents a value below 5); Solubility in Propylene glycol (mg/mL) [2]: C (C represents a value below 5)

Q: For `CCC(=O)N1[C@@H]2CCC[C@H]1C[C@H](N(C)c1nc(Nc3cc(C)[nH]n3)cc(O[C@@H]3CCOC3)n1)C2` [Compound 17, 1-((1R,3s,5S)-3-(methyl(4-((5-methyl-1H-pyrazol-3-yl)amino)-6-(((R)-tetrahydrofuran-3-yl)oxy)pyrimidin-2-yl)amino)-9-azabicyclo[3.3.1]nonan-9-yl)propan-1-one], which “JAK 1 (pKi)” value (JAK1) is on record?
A: B (B represents a pKi value between 9 and 10 (Ki between 1 nM and 0.1 nM))

Q: What about the “JAK 3 (pKi)” value (JAK3) of the same molecule?
A: C (C represents a pKi value between 8 and 9 (Ki between 10 nM and 1 nM))

Q: And the “Tall-1 IL2 pSTAT5 (pIC50)” value [1]?
A: A (A represents a pIC50 value ≥8.0)

Q: And the “Solubility at PH 7.4 (μmol)” value (Aqueous Solubility Assay)?
A: D (D represents a value between 10 and 50)

Q: What about the “Solubility in PEG400 (mg/mL)” value [2] of the same molecule?
A: B (B represents a value between 5 and 10)

Q: What about the “Solubility in Diisopropyl adipate (mg/mL)” value [2] of the same molecule?
A: A (A represents a value above 10)

Q: What about the “Solubility in MCT (mg/mL)” value [2] of the same molecule?
A: C (C represents a value below 5)

Q: And the “Solubility in Propylene glycol (mg/mL)” value [2]?
A: A (A represents a value above 10)

Q: For `CCS(=O)(=O)N1[C@@H]2CCC[C@H]1C[C@H](N(C)c1nc(Nc3cc(C)[nH]n3)cc(OC3COC3)n1)C2` [Compound 34, N^2-((1R,3s,5S)-9-(ethylsulfonyl)-9-azabicyclo[3.3.1]nonan-3-yl)-N2-methyl-N4-(5-methyl-1H-pyrazol-3-yl)-6-(oxetan-3-yloxy)pyrimidine-2,4-diamine], which “JAK 1 (pKi)” value (JAK1) is on record?
A: A (A represents a pKi value ≥10 (Ki≤0.1 nM))

Q: And the “JAK 3 (pKi)” value (JAK3)?
A: B (B represents a pKi value between 9 and 10 (Ki between 1 nM and 0.1 nM))

Q: What about the “Tall-1 IL2 pSTAT5 (pIC50)” value [1] of the same molecule?
A: A (A represents a pIC50 value ≥8.0)

Q: And the “Solubility at PH 7.4 (μmol)” value (Aqueous Solubility Assay)?
A: E (E represents a value below 10)

Q: And the “Solubility in PEG400 (mg/mL)” value [2]?
A: C (C represents a value below 5)

Q: And the “Solubility in Diisopropyl adipate (mg/mL)” value [2]?
A: C (C represents a value below 5)

Q: And the “Solubility in MCT (mg/mL)” value [2]?
A: C (C represents a value below 5)

Q: And the “Solubility in Propylene glycol (mg/mL)” value [2]?
A: C (C represents a value below 5)
